Target: T1, hCaSR-ECD (Homo sapiens, UniProt P41180)
T1 construct: made in house; host or cells: HEK293S (GnTI-) suspension culture, secreted
T1 sequence (P41180 20-612): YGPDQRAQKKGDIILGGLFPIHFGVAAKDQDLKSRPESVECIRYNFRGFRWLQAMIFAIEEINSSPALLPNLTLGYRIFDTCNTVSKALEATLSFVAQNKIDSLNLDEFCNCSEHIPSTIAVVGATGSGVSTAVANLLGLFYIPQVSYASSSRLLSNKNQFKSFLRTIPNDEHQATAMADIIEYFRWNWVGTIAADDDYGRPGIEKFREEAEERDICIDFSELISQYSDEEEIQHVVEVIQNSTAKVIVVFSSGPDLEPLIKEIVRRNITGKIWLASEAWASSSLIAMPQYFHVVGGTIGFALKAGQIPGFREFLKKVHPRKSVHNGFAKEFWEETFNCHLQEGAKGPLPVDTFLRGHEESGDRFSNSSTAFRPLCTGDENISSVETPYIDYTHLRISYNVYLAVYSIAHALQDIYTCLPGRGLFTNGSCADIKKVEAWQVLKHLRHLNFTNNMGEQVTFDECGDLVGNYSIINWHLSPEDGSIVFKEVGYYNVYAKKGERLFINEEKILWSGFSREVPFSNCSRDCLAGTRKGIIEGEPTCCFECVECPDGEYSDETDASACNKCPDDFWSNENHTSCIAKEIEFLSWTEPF
Test: Phenylalanine replacement of TNCA bound to hCaSR-ECD, LC-ESI-MS
Type: binding
Settings: overnight, 838 at 0 mM
Protocol: Considering CaSR ligand is tightly bound with hCaSR-ECD, it is conceivable that hCaSR-ECD has to be denatured to release CaSR ligand. To extract CaSR ligand, 50 μL of purified hCaSR-ECD (10 mg/mL) was mixed with 120 μL acetonitrile and vortexed. After high speed centrifugation, 10 μL of the CaSR ligand extract was injected onto a reverse-phase ACQUITY UPLC BEH C18 column (2.1 mm×100 mm, 1.7-μm particle size; Waters). Column temperature was maintained at 40° C. The flow rate was 0.3 mL/min with starting conditions at 99% solvent A (water+0.1% formic acid) and 1% solvent B (acetonitrile). The 15-min gradient profile for elution was as follows: starting at 1% solvent B and hold for 1 min, then ramping to 98% B at 10 min, hold at 98% B to 12 min, at 12.01 min return to 99% A/1% B and maintain until 15 min. The samples were analyzed by using a Waters Xevo G2-XS QToF LC-MS interfaced to a Waters Acquity UPLC system. […] Fragmentation, formula, and abundances were analyzed with Waters MassLynx Software.
A phenylalanine replacement experiment was carried out by mixing purified hCaSR-ECD protein (0.26 mg/mL) with phenylalanine (final concentrations are 0, 50 and 150 mM, respectively). […] The protein samples were adjusted to the same concentration using SEC buffer and analyzed by LC-ESI-MS.

area under the MS peak of TNCA remaining bound to hCaSR-ECD (50 mM phenylalanine): 180
area under the MS peak of TNCA remaining bound to hCaSR-ECD (150 mM phenylalanine): 76
SMILES: N[C@@H](Cc1ccccc1)C(=O)O [Phe, phenylalanine]
